In patent US7253295B2, “Chloride channel opener” (Sucampo AG, priority 2001, dated 2007):
Values joined by “and” are separate entries in the source; they are usually repeats but may differ in a detail not shown here. Equal values may be shown once.

Tests used:
16HBE14o- cells = experiment: Short-circuit current in 16HBE14o- cells (Test Example 2); format: cell-based, Human; conditions: 1 μM, 1% DMSO
Procedure: (§1) 16HBE14o- cells, a Human airway cell line derived from a healthy individual, which contain ClC-2 and the Cystic Fibrosis Transmembrane Regulator, Cl channel (CFTR); and CFBE41o- cells, a Human airway cell line derived from cystic fibrosis patients, which contain functional form of ClC-2 and defective form of CFTR (ΔF508 CFTR) were used. Both cells were cultured in MEM supplemented with 10% FBS (Hyclone), […] 1-glutamine and penicillin/streptomycin in flasks coated with fibronectin/collagen/BSA. When desired, the cells were plated on 0.3 cm^2 collagen-coated permeable filters (Biocoat). After 24 hrs, the apical medium was removed so that the cells were grown in air-water interface. While they were grown in air-water interface, the basolateral side of the cells was fed with the medium and the medium was changed every other day. The cells were allowed to grow to confluence.
Short-circuit current measurements were used to evaluate Cl transport in polarized, confluent cultures of the cells grown in air-water interface. A plexiglass chamber for short-circuit current measurements in confluent cell monolayers grown on the 0.3 cm^2 permeable support filters was used (World Precision Instruments, Sarasota, Fla.). Electrical measurements were made with a 7402C voltage clamp device (Bioengineering Department, Iowa University). The temperature was held constant at 37° C. by circulating heated water through the water jacket of the chamber. The output of the amplifier was plotted on an analog chart recorder. Changes in short-circuit current (Δlsc) after addition of test compounds were normalized to filter area (0.3 cm^2) and reported as ΔIsc/cm^2.
Short-circuit current measurements in the 16HBE14o- and CFBE41o- cells were carried out as described by Lofling et al. (Am J Physiol, 277(4 Pt 1):L700-8, 1999, the cited reference is herein incorporated by reference). […] Both solutions were bubbled with CO2/O2 (5%/95%), which also served to help mix the solutions. In all cases, the basolateral membrane was permeabilized with 200 μg/ml nystatin. […]

CFBE41o- cells = experiment: Short-circuit current in CFBE41o- cells (Test Example 2); format: cell-based, Human; conditions: 1 μM, 1% DMSO
Procedure: as §1
Short-circuit current measurements were used to evaluate Cl transport in polarized, confluent cultures of the cells grown in air-water interface. A plexiglass chamber for short-circuit current measurements in confluent cell monolayers grown on the 0.3 cm^2 permeable support filters was used (World Precision Instruments, Sarasota, Fla.). Electrical measurements were made with a 7402C voltage clamp device (Bioengineering Department, Iowa University). […]

T84 cells = experiment: Short-circuit current in T84 cells (Test Example 5); format: cell-based, human; conditions: 50 nM
Procedure: T84 cells, a human intestinal cell line, derived form confluent monolayers with tight junctions were used. Said cell line has been widely used in studies of Cl^− transport using short-circuit current (Isc). These cells contain both CFTR and ClC-2.
T84 human intestinal epithelial cells were grown to confluence at pH 7.4 in 162-cm^2 flasks (Corning Costar, Mass.) with a 1:1 mixture of Dulbecco's modified Eagle's medium and Ham's F-12 nutrient mixture supplemented with 6% fetal bovine serum (FBS), 15 mM HEPES, 14.3 mM NaHCO^3, and antibiotics/antimycotic. Flasks were passaged weekly and fed every 3 days. Cell monolayers for experiments were grown to confluence on collagen-coated permeable support (Biocoat). Monolayers were fed every 3 days and used after stable transepithelia resistance was achieved, c.a. 7-14 days post-plating.
According to the same manner as described in Example 2, Short-circuit current measurements in T84 cells were carried out. Changes in short-circuit current (ΔIsc) were normalized to filter area (0.3 cm^2) and reported as ΔIsc/cm^2.
Compound 1 was used at a final concentration of 50 nM.

[1] = test system: Chloride Ion Transport into Intestinal Fluid; experiment: Chloride ion transport into intestinal fluid of rats (Test Example 6); format: in vivo, male Wistar rats; conditions: for Chloride Ion Concentration in Intestinal Fluid, Mean ± S.E.: 30 minutes after administration
Procedure: Compound 1 (13,14-dihydro-15-keto-16,16-difluoro-prostaglandin E1) of 1, 10 or 100 μg/kg in the volume of 5 mL/kg was orally administered to male Wistar rats (six weeks old, weight:180-210 g) that had been fasted for at least 16 hours. The control group received the same volume of vehicle (distilled water containing 0.5% ethanol and 0.01% polysorbate 80). Thirty minutes after the administration, the animals were subjected to laparotomy under ether anesthesia. The top portion of the duodenum and the end portion of the ileum were ligated respectively, and the bowel was extirpated. The intestinal fluid of each animal was collected and centrifuged by 10,000×g for 5 minutes. Supernatant was collected, and the concentration of chloride ion in the supernatant of intestinal fluid was measured with a chloride counter (CL-7, Hiranuma Sangyo Co., Ltd.). Dunnett's test was used in the comparison of the control group and the groups receiving Compound 1 in each dose. P values less than 0.05 were considered to be statistically significant.

[2] = test system: Chloride Ion Transport into Lacrimal Fluid; experiment: Chloride ion transport into lacrimal fluid in rabbits (Test Example 8); format: in vivo, male white rabbits
Procedure: Physiological saline, eye drops vehicle, or eye drops containing 0.0001% or 0.001% of Compound 1 was instilled to male white rabbits in the volume of 30 μL/eye. […] The collected lacrimal fluid was diluted five fold with distilled water, and the concentration of chloride ions was measured with a chloride counter (CL-7, Hiranuma Sangyo Co. Ltd.). Student's t-test and Wilcoxon's test were used in the comparison of the control group and the groups receiving Compound 1 in each dose. P values less than 0.05 were considered to be statistically significant.

[3] = test system: Chloride Ion Transport into Bile; experiment: Chloride ion transport into bile in rats (Test Example 7); format: in vivo, male Wistar rats
Procedure: Compound 2 (13,14-dihydro-15-keto-16,16- difluoro-18(S)-methyl-prostaglandin E1) of 100 μg/kg was orally administered to male Wistar rats (six weeks old, weight:180-210 g) three times a day for seven days. The control group (n=7) received the same volume of vehicle (distilled water containing 0.01% polysorbate 80 and 0.5% ethanol). In the following morning of the final administration day (about 17 hours after the final administration), a polyethylene catheter (PE10, Becton Dickinson and Company) was inserted in the rats' choledoch under ether anesthesia. The rats were placed into Borrmann's cages and were left for 1 hour to awake from anesthesia. Bile discharged in one hour, from one to two hours after the insertion of the catheter, was collected and the concentration of chloride ion in the bile was measured with a chloride counter (CL-7, Hiranuma Sangyo Co., Ltd.). Student's t-test was used in the comparison of the control group and the group receiving Compound 2. P values less than 0.05 were considered to be statistically significant.

For `CCCCC(F)(F)[C@@]1(O)CC[C@H]2[C@@H](CC(=O)[C@@H]2CCCCCCC(=O)O)O1` [Compound 1, (−)-7-[(2R,4aR,5R,7aR)-2-(1,1-difluoropentyl)-2-hydroxy-6-oxoperhydrocyclopenta[b]pyran-5-yl]heptanoic acid], the “Short-Circuit Current (change)” value (16HBE14o- cells) was 9.56±0.095 μA/cm^2 and 9.56 ± 0.95 μA/cm^2, the “Short-Circuit Current (change)” value (CFBE41o- cells) was 5.0±0.04 μA/cm^2 and 5.0 ± 0.4 μA/cm^2 and the “Effect on Cl− transport in T84 cells (in words)” value (T84 cells) was “activated Cl^− transport”. For the same compound, the “Changes in short-circuit currents (Δlsc)” value (T84 cells; T84 cells) was 56.5 μA/cm^2, the “Chloride Ion Concentration in Intestinal Fluid, Mean ± S.E.” value ([1]; 1 μg/kg P.O.) was 82.2 ± 7.0 mEq/L and the “Chloride Ion Concentration in Intestinal Fluid, Mean ± S.E.” value ([1]; 10 μg/kg P.O.) was 110.1 ± 5.6 mEq/L. The “Chloride Ion Concentration in Intestinal Fluid, Mean ± S.E.” value ([1]; 100 μg/kg P.O.) was 126.6 ± 2.4 mEq/L, the “Effect on concentration of chloride ions in the bowel (in words)” value ([1]; 1, 10 and 100 μg/kg P.O.) was “increased the concentration of chloride ions in the bowel in a dose-dependant manner” and the “Effect on concentration of chloride ions in the lacrimal fluid (in words)” value ([2]; 0.0001% and 0.001% eye drops, compared with control group) was “increased the concentration of chloride ions in the lacrimal fluid in a dose-dependant manner”. The “Chloride Ion Concentration in lacrimal fluid, Mean ± S.E.” value ([2]; 0.0001% eye drops, 30 μL/eye, Pre (0 hour)) was 136.7 ± 3.6 mEq/L, the “Chloride Ion Concentration in lacrimal fluid, Mean ± S.E.” value ([2]; 0.0001% eye drops, 2 hr after instillation) was 123.4 ± 5.2 mEq/L and the “Chloride Ion Concentration in lacrimal fluid, Mean ± S.E.” value ([2]; 0.0001% eye drops, 4 hr after instillation) was 136.8 ± 2.3 mEq/L. For the same compound, the “Chloride Ion Concentration in lacrimal fluid, Mean ± S.E.” value ([2]; 0.0001% eye drops, 6 hr after instillation) was 136.8 ± 2.0 mEq/L, the “Chloride Ion Concentration in lacrimal fluid, Mean ± S.E.” value ([2]; 0.0001% eye drops, 8 hr after instillation) was 140.8 ± 2.8 mEq/L and the “Chloride Ion Concentration in lacrimal fluid, Mean ± S.E.” value ([2]; 0.001% eye drops, 30 μL/eye, Pre (0 hour)) was 135.4 ± 4.0 mEq/L. The “Chloride Ion Concentration in lacrimal fluid, Mean ± S.E.” value ([2]; 0.001% eye drops, 2 hr after instillation) was 152.9 ± 7.7^[##] mEq/L, the “Chloride Ion Concentration in lacrimal fluid, Mean ± S.E.” value ([2]; 0.001% eye drops, 4 hr after instillation) was 151.4 ± 2.9 mEq/L and the “Chloride Ion Concentration in lacrimal fluid, Mean ± S.E.” value ([2]; 0.001% eye drops, 6 hr after instillation) was 138.9 ± 3.3 mEq/L. The “Chloride Ion Concentration in lacrimal fluid, Mean ± S.E.” value ([2]; 0.001% eye drops, 8 hr after instillation) was 138.8 ± 1.6 mEq/L.
In the case of `CC[C@H](C)CC(F)(F)C(=O)CC[C@H]1[C@H](O)CC(=O)[C@@H]1CCCCCCC(=O)O` [Compound 2, 13,14-dihydro-15-keto-16,16-difluoro-18(S)-Methyl-PGE1], the “Short-Circuit Current (change)” value (16HBE14o- cells) is reported as 11.6±1.3 μA/cm^2, the “Short-Circuit Current (change)” value (16HBE14o- cells; listed as compound 2) is reported as 11.6 ± 1.3 μA/cm^2 and the “Effect on concentration of chloride ions in the bile (in words)” value ([3]; 100 μg/kg P.O. t.i.d. 7 days, compared with control group) is reported as “increased significantly”. The “Chloride Ion Concentration in Bile, Mean ± S.E.” value ([3]; 100 μg/kg P.O., t.i.d. for 7 days, about 17 hours after final administration) was 98.4 ± 1.8 mEq/L.
